According to patent EP0207696A1, “Dialkylaminotetrahydrobenzothiazoles and oxazoles” (ELI LILLY AND COMPANY, priority 1985, dated 1987):

Tests used:
[1] = system: prolactin secretion; assay: inhibition of prolactin secretion in reserpinized rats; assay type: in vivo, rats of the Sprague-Dawley strain; details: percent prolactin inhibition; 50 mcg/kg intraperitoneally; serum one hour after treatment; reserpine-pretreated male rats
From the text: As previously stated, the compounds of this invention (wherein neither R^3 nor R^4 is H) are receptor agonists; ie, they are capable of increasing the quantities of various neurohormones--dopamine and norepi- nephrine in particular--available for interaction with specific receptors. For example, the compound according to XX wherein R^1 and R^2 are H and R^3 and R^4 are both n-propyl, is a specific dopamine D-2 agonist.
Adult male rats of the Sprague-Dawley strain weighing about 200 g were housed in an air-conditioned room with controlled lighting (lights on 6 a.m. - 8 p.m.) and fed lab chow and water ad libitum. Each rat received an intraperitoneal injection of 2.0 mg of reserpine in aqueous suspension 18 hours before administration of the test drug. The purpose of the reserpine was to keep the rat prolactin levels uniformly elevated. The compound was dissolved in 10 percent ethanol, and injected intraperitoneally to groups of ten rats at preselected dose levels. A control group of 10 intact males received an equivalent amount of 10 percent ethanol. One hour after treatment, all rats were killed by decapitation, and 150 µl aliquots of serum were assayed for prolactin.
The difference between the prolactin levels of the treated rats and the control rats, divided by the prolactin level of the control rats gives the percent inhibition of prolactin secretion attributable to the given dose. […]

[2] = system: anesthetized spontaneously hypertensive rats; assay: blood pressure in anesthetized spontaneously hypertensive rats; assay type: in vivo; details: anesthetized SHR
Description: Compounds according to XX, particularly those wherein both R^3 and R^4 are methyl, reduce the blood pressure of anesthetized spontaneously hypertensive rats, as illustrated by the following experiment: • Adult male spontaneously hypertensive rats (SHR) (Taconic Farms, Germantown, New York), weighing approximately 300 g. were anesthetized with pentobarbital sodium (60 mg./kg., i.p.). The trachea was cannulated and the SHR respired room air. Pulsatile arterial blood pressure was measured from a cannulated carotid artery using a Statham transducer (P23 ID). Mean arterial blood pressure was calculated as diastolic blood pressure plus 1/3 pulse pressure. Cardiac rate was monitored by a cardiotachometer which was triggered by the systolic pressure pulse. Drug solutions were administered i.v. through a catheter placed in a femoral vein.
Arterial blood pressure and cardiac rate were recorded on a multichannel oscillograph (Beckman, Model R511A). Fifteen minutes were allowed to elapse following surgery for equilibration of the preparation.
Table 3 which follows gives the results of this test using (±)-2-amino-6-di-n-propyl-5,6,7,8-tetra- hydrobenzothiazole dihydrobromide. In Table 3, column 1 gives the dose level, column 2, the change in mean arterial blood pressure.

[3] = system: 6-hydroxydopamine-lesioned rats; assay: turning behavior in 6-hydroxydopamine-lesioned rats; assay type: in vivo; details: 1000 mcg/kg; first 15 minutes after the end of the latency period
From the text: Dopamine agonists are also known to affect turning behavior in 6-hydroxydopamine-lesioned rats in a test procedure designed to uncover compounds useful for the treatment of Parkinsonism. In this test, nigroneostriatal-lesioned rats are employed, as prepared by the procedure of Ungerstedt and Arbuthnott, Brain Res, 24, 485 (1970). A compound having dopamine agonist activity causes the rats to turn in circles contralateral to the side of the lesion. After a latency period, which varies from compound to compound, the number of turns is counted over a 15-minute period.
Results obtained from such testing for (±)-2-amino-6-di-n-propylamino-5,6,7,8-tetrahydrobenzothiazole dihydrobromide are set forth in Table 2 below. In the table, column 1 gives the dose and column 2 the average number of turns observed in first 15 minutes after the end of the latency period.

[4] = system: conscious SHR; assay: hypotensive action in conscious SHR; assay type: in vivo; details: 1 mg/kg i.v.
Description: In another test for hypotensive action conscious SHR, cannulated in the femoral artery and vein, were used. The drug was administered i.v. (±)-2-Amino-6-dimethylamino-5,6,7,8-tetrahydrobenzothiazole was tested in this system as the dihydrobromide salt at a 1 mg/kg dose. In the table, column 1 gives time in minutes after injection and columns 2 and 3 the mean percent decrease in arterial pressure and heart rate respectively for that time interval.

In the case of `CCCN(CCC)C1CCc2nc(N)sc2C1` (racemic) [(±)-2-Amino-6-di-n-propylamino-5,6,7,8-tetrahydrobenzothiazole], the “% Inhibition” value [1] is reported as 30%, the “Decrease in Mean Arterial Blood Pressure” value ([2]; 1 mcg/kg i.v.) is reported as -16.1 ± 2.4 and the “Decrease in Mean Arterial Blood Pressure” value ([2]; 10 mcg/kg i.v.) is reported as -21.0 ± 2.0. For the same molecule, the “Decrease in Mean Arterial Blood Pressure” value ([2]; 100 mcg/kg i.v.) was -34.1 ± 3.2, the “Decrease in Mean Arterial Blood Pressure” value ([2]; 1000 mcg/kg i.v.) was “+13.5 ± 4.4” and the “Average number of Turns” value [3] was 51.

For `CN(C)C1CCc2nc(N)sc2C1` (racemic) [(±)-2-Amino-6-dimethylamino-5,6,7,8-tetrahydrobenzothiazole], the “PERCENT CHANGE FROM CONTROL Blood Pressure” value ([4]; 5 minutes after injection) was -3.6%, the “PERCENT CHANGE FROM CONTROL Heart Rate” value ([4]; 5 minutes after injection) was -12.3% and the “PERCENT CHANGE FROM CONTROL Blood Pressure” value ([4]; 15 minutes after injection) was -17.1%. The “PERCENT CHANGE FROM CONTROL Heart Rate” value ([4]; 15 minutes after injection) was -17.7%, the “PERCENT CHANGE FROM CONTROL Blood Pressure” value ([4]; 30 minutes after injection) was -18.6% and the “PERCENT CHANGE FROM CONTROL Heart Rate” value ([4]; 30 minutes after injection) was -15.5%. For the same molecule, the “PERCENT CHANGE FROM CONTROL Blood Pressure” value ([4]; 45 minutes after injection) was -16.9%, the “PERCENT CHANGE FROM CONTROL Heart Rate” value ([4]; 45 minutes after injection) was -8.3% and the “PERCENT CHANGE FROM CONTROL Blood Pressure” value ([4]; 60 minutes after injection) was -17.2%. The “PERCENT CHANGE FROM CONTROL Heart Rate” value ([4]; 60 minutes after injection) was -5.2%, the “PERCENT CHANGE FROM CONTROL Blood Pressure” value ([4]; 90 minutes after injection) was -16.9% and the “PERCENT CHANGE FROM CONTROL Heart Rate” value ([4]; 90 minutes after injection) was -0.7%. For the same molecule, the “PERCENT CHANGE FROM CONTROL Blood Pressure” value ([4]; 120 minutes after injection) was -15.8%, the “PERCENT CHANGE FROM CONTROL Heart Rate” value ([4]; 120 minutes after injection) was -4.1% and the “PERCENT CHANGE FROM CONTROL Blood Pressure” value ([4]; 180 minutes after injection) was -14.7%. The “PERCENT CHANGE FROM CONTROL Heart Rate” value ([4]; 180 minutes after injection) was -4.1%.
